Tests used:
[1] = at 25° C.; known value; cited from earlier work
[2] = Quantification of amount of active in coating by GC; format: physicochemical; settings: PVOH/active/SDS coating; for % Incorporated active (compared to theoretical maximum amount): theoretical maximum 25 wt. % of active
Experimental: The coating is peeled off the PET backer and then placed in a petri-dish in a fume-hood overnight to allow any residual non-encapsulated active to evaporate. The following day, the delaminated coating is precisely weighed into a 20 mL GC vial. 5.0 grams of DI water is added, and the vial immediately sealed. The contents of the vial are gently swirled to dissolve the coating in the water, and at least 10 hours are allowed for the headspace to equilibrate with the aqueous phase. A headspace sample is then removed by syringe for injection into the GC column.

[3] = Vapor pressure and saturated headspace concentration of pure reference compound; format: physicochemical; settings: for saturated headspace concentration of reference samples: pure compound 0.5 mL in vial, calculated from known vapor pressures at room temperature
Experimental: The strips of coating are then placed inside GC headspace vials (20 mL). In some cases a droplet of water (0.10 mL) is added to the bottom of the vial (avoiding contact with the strip) before the vial is sealed, in order to generate an atmosphere of 100% relative humidity (RH).
(§1) Analysis of Release of trans-2-hexenal or guaiacol from Coating into Headspace: A strip of approximately 13.6 cm^2 is cut from the middle of the coated PET sheet. The coating is peeled off the PET backer and then placed in a petri-dish in a fume-hood overnight to allow any residual non-encapsulated active to evaporate. A GC vial, 20 mL, with a screw-on septum-cap is prepared at 95% humidity by adding a mini plastic ultracentrifuge vial with the cap cut off containing approximately 0.20 g of saturated potassium nitrate (KNO3) solution, with a few grains of solid KNO3 added to maintain saturation. After allowing time (at least 2 hours) for the humidity in the vial to equilibrate, the strip of coating is added to the GC vial, and the vial immediately sealed. After allowing the desired amount of time for release of the active from the coating, a headspace sample is removed by syringe for injection into the GC column. The concentration in the Headspace is determined by comparing the GC Peak Area of the sample to the GC Peak Area of the headspace from a vial containing 0.5 mL of pure trans-2-hexenal, or guaiacol.

[4] = Analysis of release of trans-2-hexenal or guaiacol from coating into headspace at 95% RH; format: physicochemical; settings: PVOH coating strip, room temperature/95% RH
Experimental: as §1

Row | Structure (SMILES) | vapor pressure [1] [kPa] | % Incorporated active (compared to theoretical maximum amount) [2] [%] | saturated concentration in the headspace of reference vial ([3]; pure compound 0.50 mL in vial, calculated from known vapor pressure at 25° C.) [ppm] | Absolute amount of active incorporated (wt. %) [2] [% wt. %] | saturated headspace concentration of reference samples [3] | Concentration of guaiacol in headspace (ppm) ([4]; 0.62 hours after strip inserted into GC vial) | Concentration of guaiacol in headspace (ppm) ([4]; 1.2 hours) | Concentration of guaiacol in headspace (ppm) ([4]; 1.75 hours) | Concentration of guaiacol in headspace (ppm) ([4]; 3.52 hours) | Concentration of guaiacol in headspace (ppm) ([4]; 23.75 hours) | Concentration of trans-2-hexenal in headspace (ppm) ([4]; 0.17 hours after strip inserted into GC vial) | Concentration of trans-2-hexenal in headspace (ppm) ([4]; 0.70 hours) | Concentration of trans-2-hexenal in headspace (ppm) ([4]; 1.25 hours) | Concentration of trans-2-hexenal in headspace (ppm) ([4]; 1.78 hours) | Concentration of trans-2-hexenal in headspace (ppm) ([4]; 2.33 hours) | Concentration of trans-2-hexenal in headspace (ppm) ([4]; 2.87 hours) | Concentration of trans-2-hexenal in headspace (ppm) ([4]; 3.42 hours) | Concentration of trans-2-hexenal in headspace (ppm) ([4]; 4.52 hours) | Concentration of trans-2-hexenal in headspace (ppm) ([4]; 17.77 hours)
1 | CCCCCCO [Formulation 1-Hexanol, 1-hexanol] | 0.124 | 75.0 | 1224 | – | – | – | – | – | – | – | – | – | – | – | – | – | – | – | –
2 | COc1ccccc1O [Guaiacol, guaiacol] | – | 68.7 | – | 17.2 | 145 ppm (V/V) | 76.17 | 81.90 | 80.20 | 82.55 | 89.52 | – | – | – | – | – | – | – | – | –
3 | CCC/C=C/C=O [Trans-2-hexenal, trans-2-hexenal] | – | 71.9 | – | 18.0 | 8685 ppm (V/V) | – | – | – | – | – | 350.60 | 589.45 | 1266.50 | 2036.63 | 3484.15 | 4541.25 | 6173.40 | 7357.28 | 6742.25

From patent US10220548B2, “Humidity activated formulation for volatile compounds” (AgroFresh, Inc., priority 2013, dated 2019)
